Experimental data from paper PMC5515969, “Effects of 31 FDA approved small-molecule kinase inhibitors on isolated rat liver mitochondria” (Archives of Toxicology, 2016).
Read-outs that look alike come from different tables or passages of the source. Marks after values point to notes of the source that are not given here.

Key:
[1] = cited from earlier work
RCC IV = RCC IV activity in submitochondrial particles; type: biochemical, rat; parameters: key to RCC IV at 50XCmax / RCC IV at 100XCmax: activity relative to DMSO-treated controls (control set as 1 = 100%); details: 50XCmax; DMSO treated samples set as 1; in %
Procedure, shortened: (§1)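 Abs 340 nm (I/V) or 600 nm (II), 1-min reads × 6 min; 550 nm (III, IV), 10-s reads × 2 min. RCC I = rotenone-free minus rotenone rate. DMSO control = 1.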

RCC II = biological target: T1, RCC II (Rattus norvegicus, UniProt P21913+Q641Z9+Q6PCT8+Q920L2); assay: RCC II activity in submitochondrial particles; type: biochemical; parameters: key: activity relative to DMSO-treated controls (control set as 1 = 100%); details: DMSO treated samples set as 1
T1 construct: Submitochondrial particles were prepared by subjecting the intact mitochondria to three successive freeze–thaw cycles; from tissue; host or cells: rat liver mitochondria, used as submitochondrial particles
Procedure, shortened: as §1

[2] = cited from earlier work; remark: listed apart in the source
RCC V = RCC V activity in submitochondrial particles; type: biochemical, rat; details: DMSO treated samples set as 1; as to RCC V at 5XCmax: key: 0 indicates that the drug had no effects (negative)
Procedure, shortened: as §1

[3] = system: isolated rat liver mitochondria; assay: Mitochondrial swelling (absorbance at 535 nm); type: biochemical; as to Swelling 5XCmax: key: 0 indicates that the drug had no effects (negative)
RCC I = RCC I activity in submitochondrial particles; type: biochemical, rat; parameters: key to RCC I at 10XCmax / RCC I at 100XCmax / RCC I at 50XCmax / RCC I at 30XCmax / RCC I at 20XCmax: activity relative to DMSO-treated controls (control set as 1 = 100%); details: 10XCmax; DMSO treated samples set as 1
Procedure, shortened: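 First, submitochondrial particles (1 mg/ml) are incubated with inhibitor for 15 min. Next, complex activities are followed spectrophotometrically, with RCC I taken as the difference between buffers lacking and containing rotenone. Finally, activities are expressed relative to DMSO controls set at 1.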

[4] = system: isolated rat liver mitochondria; assay: Mitochondrial oxygen consumption (glutamate/malate or succinate driven, state 4 and state 3); type: biochemical; details: for Glutamate/malate driven respiration State 3 / Glutamate/malate driven respiration State 4 / Succinate-driven respiration State 3 / Succinate-driven respiration State 4: oxygen consumption, DMSO-treated = 1; as to State 3 respiration driven by succinate at 10XCmax: key: 0 indicates that the drug had no effects (negative); as to State 3 respiration driven by succinate at 1XCmax: key: 0 indicates that the drug had no effects (negative)
Procedure, shortened: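 Oxygen uptake on glutamate/malate or on succinate defined state 4; ADP added 3 min later gave state 3. Mitochondria isolated from rat liver by differential centrifugation, adjusted to 1 mg/ml and pretreated 5 min with inhibitor (0.1% DMSO final). Values relative to DMSO control, set to 1.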

[5] = system: isolated rat liver mitochondria; assay: Mitochondrial inner membrane potential (MMP), Rhodamine 123; type: biochemical
Description: Fig. 3 KI effects on mitochondrial inner membrane potential (MMP). […] In a, c, data are means and standard derivations from three separate experiments. *p < 0.05 as compared to DMSO-treated samples at the end of experiments. In b, data are means of two independent experiments

RCC III = RCC III activity in submitochondrial particles; type: biochemical, rat; parameters: key to RCC III at 100XCmax: activity relative to DMSO-treated controls (control set as 1 = 100%); details: 100XCmax
Procedure, shortened: as §1

[6] = 1XCmax, difference in signal between KI and DMSO treated samples at the end of experiments
[7] = 2.5XCmax, difference in signal between KI and DMSO treated samples at the end of experiments
[8] = 5XCmax, difference in signal between KI and DMSO treated samples at the end of experiments
[9] = 10XCmax, difference in signal between KI and DMSO treated samples at the end of experiments
[10] = 20XCmax, difference in signal between KI and DMSO treated samples at the end of experiments
[11] = 30XCmax, difference in signal between KI and DMSO treated samples at the end of experiments
[12] = 50XCmax, difference in signal between KI and DMSO treated samples at the end of experiments
[13] = 100XCmax, difference in signal between KI and DMSO treated samples at the end of experiments
[14] = 1XCmax, DMSO treated samples set as 1
[15] = 2.5XCmax, DMSO treated samples set as 1
[16] = 5XCmax, DMSO treated samples set as 1
[17] = 10XCmax, DMSO treated samples set as 1
[18] = 20XCmax, DMSO treated samples set as 1
[19] = 30XCmax, DMSO treated samples set as 1
[20] = 50XCmax, DMSO treated samples set as 1
[21] = 100XCmax, DMSO treated samples set as 1

T1 sequence (Q920L2 35-656): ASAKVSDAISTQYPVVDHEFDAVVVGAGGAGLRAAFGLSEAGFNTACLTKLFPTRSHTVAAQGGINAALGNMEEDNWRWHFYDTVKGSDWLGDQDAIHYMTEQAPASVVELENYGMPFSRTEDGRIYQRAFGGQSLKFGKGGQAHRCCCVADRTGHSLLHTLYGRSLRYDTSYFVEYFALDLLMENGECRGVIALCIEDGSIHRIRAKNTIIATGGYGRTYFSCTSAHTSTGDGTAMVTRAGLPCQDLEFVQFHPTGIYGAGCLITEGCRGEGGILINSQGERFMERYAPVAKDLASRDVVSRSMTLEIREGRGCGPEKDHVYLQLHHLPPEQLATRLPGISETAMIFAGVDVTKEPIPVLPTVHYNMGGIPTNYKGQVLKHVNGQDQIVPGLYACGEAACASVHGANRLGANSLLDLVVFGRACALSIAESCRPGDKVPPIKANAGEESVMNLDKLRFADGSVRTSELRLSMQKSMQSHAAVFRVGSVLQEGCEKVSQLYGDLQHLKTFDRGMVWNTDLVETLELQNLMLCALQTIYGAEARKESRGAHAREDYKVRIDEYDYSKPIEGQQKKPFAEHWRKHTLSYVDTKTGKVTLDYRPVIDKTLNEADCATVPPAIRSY
T1 sequence (P21913 31-282): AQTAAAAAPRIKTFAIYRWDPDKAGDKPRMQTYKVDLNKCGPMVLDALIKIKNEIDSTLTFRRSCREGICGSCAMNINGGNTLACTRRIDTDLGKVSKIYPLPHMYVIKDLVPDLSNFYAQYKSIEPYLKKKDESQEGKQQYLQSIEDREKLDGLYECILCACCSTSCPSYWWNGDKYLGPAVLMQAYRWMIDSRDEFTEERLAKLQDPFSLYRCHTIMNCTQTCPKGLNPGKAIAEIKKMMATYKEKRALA
T1 sequence (Q641Z9 1-169): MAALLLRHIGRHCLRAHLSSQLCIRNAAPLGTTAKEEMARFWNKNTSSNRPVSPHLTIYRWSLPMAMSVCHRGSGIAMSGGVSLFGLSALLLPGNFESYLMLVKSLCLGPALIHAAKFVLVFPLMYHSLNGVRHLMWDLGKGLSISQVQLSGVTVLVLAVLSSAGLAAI
T1 sequence (Q6PCT8 57-159): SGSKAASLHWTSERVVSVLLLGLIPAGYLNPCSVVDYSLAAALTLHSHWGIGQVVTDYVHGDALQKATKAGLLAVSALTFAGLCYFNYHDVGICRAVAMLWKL

Question: What does the source list for CC(C)(C)c1nc(-c2cccc(NS(=O)(=O)c3c(F)cccc3F)c2F)c(-c2ccnc(N)n2)s1 [Dabrafenib]?
Answer: Cmax ([1]; human therapeutic Cmax at FDA recommended dosages, ref product labeling and drug approval packages at the official FDA website): 2.84 µM; Cmax (ng or µg/ml) ([1]; human therapeutic maximal blood concentration, ref product labeling): 1,478 ng/ml; Cmax ([1]; read-out: Cmax at µM, human therapeutic maximal blood concentration, ref product labeling): 2.84 µM; RCC IV at 50XCmax (RCC IV): 0; RCC II at 1.0XCmax (RCC II; 1.0XCmax): 0; RCC II at 2.5XCmax (RCC II; 2.5XCmax): 0; RCC II at 5XCmax (RCC II; 5XCmax): 0; RCC II at 10XCmax (RCC II; 10XCmax): 0; RCC II at 20XCmax (RCC II; 20XCmax): 0; RCC II at 30XCmax (RCC II; 30XCmax): 0; RCC II at 50XCmax (RCC II; 50XCmax): 0; RCC II at 100XCmax (RCC II; 100XCmax): 0; DILI potential (based on labeling) ([2]; 1 DILI positive, 0 negative according to labeling, ref product labeling): 0; DILI potential (based on labeling) ([2]; ref FDA product labeling): 0; RCC V at 5XCmax (RCC V; 5XCmax): 0; RCC V at 50XCmax (RCC V; 50XCmax): 0; lowest concentration causing mitochondrial swelling [3]: tenfold; Swelling 1XCmax [3, 6]: 0; Swelling 2.5XCmax [3, 7]: 0; Swelling 5XCmax [3, 8]: 0; Swelling 10XCmax [3, 9]: 0.20±0.02; Swelling 20XCmax [3, 10]: 0.48±0.05; Swelling 30XCmax [3, 11]: 0.46±0.05; Swelling 50XCmax [3, 12]: 0.44±0.04; Swelling 100XCmax [3, 13]: 0.39±0.04; effect on mitochondrial swelling ([3]; up to 100-fold Cmax or highest testable concentration, 25 µM calcium chloride): significant mitochondrial swelling; RCC I at 10XCmax (RCC I): 0; State 3 respiration driven by glutamate/malate at 1XCmax [4, 14]: 0; State 3 respiration driven by succinate at 1XCmax [4, 14]: 0; State 4 respiration driven by glutamate/malate at 1XCmax [4, 14]: 0; State 4 respiration driven by succinate at 1XCmax [4, 14]: 0; State 3 respiration driven by glutamate/malate at 2.5XCmax [4, 15]: 0; State 3 respiration driven by succinate at 2.5XCmax [4, 15]: 0; State 4 respiration driven by glutamate/malate at 2.5XCmax [4, 15]: 0; State 4 respiration driven by succinate at 2.5XCmax [4, 15]: 0; State 3 respiration driven by glutamate/malate at 5XCmax [4, 16]: 0; State 3 respiration driven by succinate at 5XCmax [4, 16]: 0; State 4 respiration driven by glutamate/malate at 5XCmax [4, 16]: 0; State 4 respiration driven by succinate at 5XCmax [4, 16]: 0; Glutamate/malate driven respiration State 3 ([4]; 10-fold Cmax): 0.94 ± 0.04; Glutamate/malate driven respiration State 4 ([4]; 10-fold Cmax): 1.35 ± 0.19; Succinate-driven respiration State 3 ([4]; 10-fold Cmax): 0.97 ± 0.07; Succinate-driven respiration State 4 ([4]; 10-fold Cmax): 1.38 ± 0.13; State 3 respiration driven by glutamate/malate at 10XCmax [4, 17]: 0; State 3 respiration driven by succinate at 10XCmax [4, 17]: 0; State 4 respiration driven by glutamate/malate at 10XCmax [4, 17]: 1.35±0.19; State 4 respiration driven by succinate at 10XCmax [4, 17]: 1.38±0.13; Glutamate/malate driven respiration State 3 ([4]; 20-fold Cmax): 0.90 ± 0.05; Glutamate/malate driven respiration State 4 ([4]; 20-fold Cmax): 1.59 ± 0.05; Succinate-driven respiration State 3 ([4]; 20-fold Cmax): 0.65 ± 0.01; Succinate-driven respiration State 4 ([4]; 20-fold Cmax): 1.31 ± 0.02; State 3 respiration driven by glutamate/malate at 20XCmax [4, 18]: 0; State 3 respiration driven by succinate at 20XCmax [4, 18]: 0.65±0.01; State 4 respiration driven by glutamate/malate at 20XCmax [4, 18]: 1.59±0.05; State 4 respiration driven by succinate at 20XCmax [4, 18]: 1.31±0.02; Glutamate/malate driven respiration State 3 ([4]; 30-fold Cmax): 0.71 ± 0.03; Glutamate/malate driven respiration State 4 ([4]; 30-fold Cmax): 2.22 ± 0.24; Succinate-driven respiration State 3 ([4]; 30-fold Cmax): 0.59 ± 0.07; Succinate-driven respiration State 4 ([4]; 30-fold Cmax): 1.52 ± 0.12; State 3 respiration driven by glutamate/malate at 30XCmax [4, 19]: 0.71±0.03; State 3 respiration driven by succinate at 30XCmax [4, 19]: 0.59±0.07; State 4 respiration driven by glutamate/malate at 30XCmax [4, 19]: 2.22±0.24; State 4 respiration driven by succinate at 30XCmax [4, 19]: 1.52±0.12; Glutamate/malate driven respiration State 3 ([4]; 50-fold Cmax): 0.56 ± 0.05; Glutamate/malate driven respiration State 4 ([4]; 50-fold Cmax): 2.42 ± 0.21; Succinate-driven respiration State 3 ([4]; 50-fold Cmax): 0.44 ± 0.10; Succinate-driven respiration State 4 ([4]; 50-fold Cmax): 1.69 ± 0.30; State 3 respiration driven by glutamate/malate at 50XCmax [4, 20]: 0.56±0.05; State 3 respiration driven by succinate at 50XCmax [4, 20]: 0.44±0.10; State 4 respiration driven by glutamate/malate at 50XCmax [4, 20]: 2.42±0.21; State 4 respiration driven by succinate at 50XCmax [4, 20]: 1.69±0.30; Glutamate/malate driven respiration State 3 ([4]; 100-fold Cmax): 0.41 ± 0.05; Glutamate/malate driven respiration State 4 ([4]; 100-fold Cmax): 2.49 ± 0.32; Succinate-driven respiration State 3 ([4]; 100-fold Cmax): 0.28 ± 0.01; Succinate-driven respiration State 4 ([4]; 100-fold Cmax): 1.03 ± 0.09; State 3 respiration driven by glutamate/malate at 100XCmax [4, 21]: 0.41±0.05; State 3 respiration driven by succinate at 100XCmax [4, 21]: 0.28±0.01; State 4 respiration driven by glutamate/malate at 100XCmax [4, 21]: 2.49±0.32; State 4 respiration driven by succinate at 100XCmax [4, 21]: 0; effect on state 4 respiration ([4]; highest tested concentrations): significant increases; lowest concentration significantly affecting mitochondrial oxygen consumption ([4]; tested at 1 to 100-fold Cmax): tenfold; lowest concentration decreasing MMP [5]: 20 fold Cmax; MMP measured by Rhodamine 123 at 1XCmax [5, 6]: 0; MMP measured by Rhodamine 123 at 2.5XCmax [5, 7]: 0; MMP measured by Rhodamine 123 at 5XCmax [5, 8]: 0; MMP measured by Rhodamine 123 at 10XCmax [5, 9]: 0; MMP measured by Rhodamine 123 at 20XCmax [5, 10]: 660±95*; MMP measured by Rhodamine 123 at 30XCmax [5, 11]: 773±60*; MMP measured by Rhodamine 123 at 50XCmax [5, 12]: 953±54*; MMP measured by Rhodamine 123 at 100XCmax [5, 13]: 926±89*; effect on MMP ([5]; up to 100-fold Cmax or highest testable concentration): decrease in MMP; RCC III at 100XCmax (RCC III): 0
